Measurements published in patent US20100204167A1, “ACTIVE COMPOUND COMBINATIONS HAVING INSECTICIDAL AND ACARICIDAL PROPERTIES” (priority 2006, published 2010).

Columns and labels:
Aphis gossypii = Aphis gossypii test (cotton leaves dipped); assay type: in vivo; settings: single active compound
Myzus persicae [1] = assay: Myzus persicae test (cabbage leaves sprayed); assay type: in vivo; settings: single active compound
Myzus persicae [2] = assay: Myzus persicae test (cabbage leaves dipped); assay type: in vivo; settings: single active compound
[3] = system: Phaedon cochleariae larvae; assay: Phaedon cochleariae larvae test (Example D, spray); assay type: in vivo; settings: single active compound
[4] = system: Spodoptera frugiperda larvae; assay: Spodoptera frugiperda larvae test (spray); assay type: in vivo; settings: single active compound
Tetranychus urticae = assay: Tetranychus test (OP-resistant/spray treatment); assay type: in vivo; settings: single active compound
Procedure: Disks of bean leaves (Phaseolus vulgaris) which are infested by all stages of the greenhouse red spider mite (Tetranychus urticae) are sprayed with an active compound preparation of the desired concentration.
After the desired period of time, the activity in % is determined.

[5] = system: Phaedon cochleariae larvae; assay: Phaedon cochleariae larvae test (Example G); settings: 0.8 ppm, single active compound

## CCOC(=O)OC1=C(c2cc(C)ccc2C)C(=O)NC12CCC(OC)CC2 (centres unmarked) [compound (I-2-a)]
Aphis gossypii; 0.8 ppm
  Kill in % after 6d: 0%
Myzus persicae [1]; 0.8 g/ha
  Kill in % after 6d: 50%
Myzus persicae [1]; 20 g/ha
  Kill in % after 1d: 0%
Myzus persicae [2]; 0.8 ppm
  Kill in % after 6d: 0%
[3]; 4 g/ha
  Kill in % after 6d: 0%
[3]; 20 g/ha
  Kill in % after 2d: 0%
  Kill in % after 6d: 0%
[4]; 20 g/ha
  Kill in % after 2d: 17%
[4]; 100 g/ha
  Kill in % after 2d: 83%
Tetranychus urticae; 0.8 g/ha
  Kill in % after 2d: 0%
Tetranychus urticae; 20 g/ha
  Kill in % after 2d: 0%

## CCOC(=O)OC1=C(c2cc(C)ccc2C)C(=O)N[C@]12CC[C@@H](OC)CC2 [compound (I-2)]
Aphis gossypii; 0.8 ppm
  Kill in % after 6d: 0%
Myzus persicae [1]; 0.8 g/ha
  Kill in % after 6d: 50%
Myzus persicae [1]; 20 g/ha
  Kill in % after 1d: 0%
Myzus persicae [2]; 0.8 ppm
  Kill in % after 6d: 10%
[3]; 4 g/ha
  Kill in % after 6d: 0%
[3]; 20 g/ha
  Kill in % after 2d: 0%
  Kill in % after 6d: 0%
[4]; 20 g/ha
  Kill in % after 2d: 17%
[4]; 100 g/ha
  Kill in % after 2d: 83%
Tetranychus urticae; 0.8 g/ha
  Kill in % after 2d: 20%
Tetranychus urticae; 20 g/ha
  Kill in % after 2d: 10%

## abamectin
Aphis gossypii; 0.8 ppm
  Kill in % after 6d: 45%
Myzus persicae [2]; 0.8 ppm
  Kill in % after 6d: 10%
Myzus persicae [2]; 4 ppm
  Kill in % after 6d: 65%

## COC1CCC2(CC1)NC(=O)C(c1cc(C)ccc1C)=C2O (centres unmarked) [compound (I-1-a)]
Aphis gossypii; 100 ppm
  Kill in % after 6d: 50%
Myzus persicae [2]; 4 ppm
  Kill in % after 6d: 20%
[5]
  Kill in % after 6d: 0%

## milbemectin
Myzus persicae [1]; 0.8 g/ha
  Kill in % after 1d: 0%

## CCc1nn(C)c(C(=O)NCc2ccc(C(C)(C)C)cc2)c1Cl [tebufenpyrad]
[3]; 4 g/ha
  Kill in % after 6d: 0%

## CC(C)c1cc(Oc2ccccc2)cc(C(C)C)c1NC(=S)NC(C)(C)C [diafenthiuron]
Myzus persicae [1]; 4 g/ha
  Kill in % after 6d: 60%
[4]; 100 g/ha
  Kill in % after 2d: 50%

## CCOCn1c(-c2ccc(Cl)cc2)c(C#N)c(Br)c1C(F)(F)F [chlorfenapyr]
[3]; 4 g/ha
  Kill in % after 2d: 0%

## CC(C)(C)c1ccc(CSc2cnn(C(C)(C)C)c(=O)c2Cl)cc1 [pyridaben]
[3]; 4 g/ha
  Kill in % after 6d: 33%
Tetranychus urticae; 0.8 g/ha
  Kill in % after 2d: 0%

## CO[C@H]1CC[C@]2(CC1)NC(=O)C(c1cc(C)ccc1C)=C2O [compound (I-1)]
Aphis gossypii; 100 ppm
  Kill in % after 6d: 70%
Myzus persicae [2]; 4 ppm
  Kill in % after 6d: 5%
[5]
  Kill in % after 6d: 0%

## spinosad
Aphis gossypii; 100 ppm
  Kill in % after 6d: 20%
Tetranychus urticae; 4 g/ha
  Kill in % after 2d: 10%
[5]
  Kill in % after 6d: 20%

## Cc1nn(C)c(Oc2ccccc2)c1C=NOCc1ccc(C(=O)OC(C)(C)C)cc1 [fenpyroximate]
Myzus persicae [1]; 20 g/ha
  Kill in % after 1d: 20%
[3]; 20 g/ha
  Kill in % after 6d: 33%
[4]; 100 g/ha
  Kill in % after 2d: 50%
